{"source": "paper PMC12811996", "about": "“Exploration and Characterization of the Antimalarial Activity of Pyrimidine‐2,4‐Diamines for which Resistance is Mediated by the ABCI3 Transporter” (Chemmedchem, 2025)", "key": {"[1]": {"tested_on": "W482-resistant P. falciparum 3D7 populations", "assay": "72 h Pf LDH assay against W482-selected populations", "assay_type": "cell-based, Plasmodium falciparum", "settings": "for EC50: 72 h Pf LDH assay", "method": "To identify the mechanism by which the pyrimidine‐2,4‐diamine class kills the P. falciparum parasite, a forward genetic study was performed on the hit compound W482 (1). We selected W482 (1) as the representative compound from this class, as the forward genetics and phenotype assays were performed in parallel to the medicinal chemistry described in the prior section. […] Genomic DNA was then prepared from these two resistant populations and the parental 3D7 strain and whole genome sequenced.\nFigure 3 The activity of W482 (1) against W482‐selected populations and their 3D7 parental. The data are mean and SD from 3 independent 72 h Pf LDH assays.\nThis was performed as previously described.^[ [14] ^] Briefly, 3D7 wildtype parasites initially exposed to 2 × EC50 (0.3 µM) of W482 (1) and incremental increases in EC50 were applied until 10 × EC50 was reached. The resistant populations were not cloned for whole‐genome sequencing."}, "[2]": {"assay": "physchem", "assay_type": "physicochemical", "settings": "shake-flask method; listed as 1", "method": "(§1) This was performed as previously described.^[ [14] ^, [16] ^]"}, "[3]": {"tested_on": "P. falciparum 3D7 parasites", "assay": "P. falciparum 3D7 asexual stage parasite LDH assay, 72 h", "assay_type": "cell-based, Plasmodium falciparum", "method": "(§2) To establish the SAR, the antiparasitic activity of the analogs was determined using an assay that measures the lactate dehydrogenase (LDH) activity of asexual P. falciparum 3D7 parasites after 72 h of compound treatment. Mammalian cytotoxicity was monitored using an assay that measures the growth of HepG2 cells using Cell Titer‐Glo after 48 h of compound treatment.\nThis was performed as previously described, whereby lactate dehydrogenase (LDH) was used as a metabolic marker for parasite growth after a 72‐h incubation period.^[ [14] ^, [30] ^]"}, "[4]": {"tested_on": "Plasmodium falciparum strain 3D7A", "assay": "Parasite reduction ratio assay", "assay_type": "cell-based", "settings": "for asexual speed-of-kill profile: 10 × EC50, 24 and 48 h treatment, P. falciparum 3D7", "description": "(§3) Figure 5 a) Stage of arrest assay showing that W482 (1) blocks ring‐trophozoite transition in the asexual stage of P. falciparum. […] Replicates of Giemsa‐stained blood smears can be found in Figure S4 (Supporting Information). c) Parasite reduction ratio assay conducted at 10 × EC50 of W482 (1). Data represent means and SD of P. falciparum 3D7 parasite survival measuring 3 independent replicates by two‐color flow cytometry using CFDA‐SE and Hoescht 33,342 staining.\nSamples of parasites were collected at 24‐ and 48‐hour timepoints, whereby the compound was washed out and fresh erythrocytes pre‐labeled with intracellular dye were added. Samples were then incubated for 18 days, and then the number of viable parasites was quantified by flow cytometry (Figure 5c).\nThis assay was conducted following a previously described protocol using the Plasmodium falciparum strain 3D7A, MRA‐151.^[ [19] ^, [28] ^] The human biological samples used in the study were sourced ethically, and their research use was conducted in accordance with the terms of informed consent under an IRB/EC‐approved protocol."}, "[5]": {"biological_target": "Albumax (Bos taurus, UniProt P02769)", "sequence (P02769 25-607)": "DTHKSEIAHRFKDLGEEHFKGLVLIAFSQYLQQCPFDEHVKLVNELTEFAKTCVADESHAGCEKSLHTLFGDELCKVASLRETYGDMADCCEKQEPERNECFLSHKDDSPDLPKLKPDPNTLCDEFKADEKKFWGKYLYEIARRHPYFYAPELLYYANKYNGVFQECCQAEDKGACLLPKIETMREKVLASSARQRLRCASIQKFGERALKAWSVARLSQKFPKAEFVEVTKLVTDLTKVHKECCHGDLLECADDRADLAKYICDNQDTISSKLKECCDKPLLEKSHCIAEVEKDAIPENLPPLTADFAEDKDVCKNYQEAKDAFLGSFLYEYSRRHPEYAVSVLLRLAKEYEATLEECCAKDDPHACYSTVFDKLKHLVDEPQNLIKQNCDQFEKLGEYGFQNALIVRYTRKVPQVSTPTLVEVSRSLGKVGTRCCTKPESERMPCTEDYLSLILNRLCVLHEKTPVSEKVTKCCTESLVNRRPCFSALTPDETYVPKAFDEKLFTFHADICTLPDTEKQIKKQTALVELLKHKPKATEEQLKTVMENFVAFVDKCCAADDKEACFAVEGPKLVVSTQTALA", "assay": "in vitro", "assay_type": "in vitro ADME"}, "[6]": {"tested_on": "PfABCI3-HAreg parasites", "assay": "Parasite proliferation assay with PfABCI3-HAreg parasites (SYBR Safe, 72 h)", "assay_type": "cell-based, Plasmodium falciparum", "settings": "mean ± SEM, n = 4; for IC50: 72 h", "method": "Glucosamine (GlcN) (5 mM) was used to reduce the level of pfabci3‐ha. Chloroquine and MMV020746 were used as negative and positive controls, respectively.\nFigure 4 Sensitivity of PfABCI3‐HAreg parasites to growth inhibition by chloroquine (a), MMV020746 (b), and W482 (1) (c). Data for parasites in which pfabci3‐ha mRNA was reduced (+ GlcN) are shown in red. GlcN (5 mM) was added to the parasites 48 h prior to the assay and maintained throughout the 72 h assay. The data for parasites expressing a normal level of PfABCI3‐HA (‐GlcN) are shown in black. The data in all panels are from four independent experiments performed on different days. […] Parasites that were treated with or without GlcN (5 mM) were tested concurrently in each assay. TEXT PRINTED IN THE PICTURE: chloroquine: IC50 ± SEM (nM) - GlcN: 12.6 ± 1.1; IC50 ± SEM (nM) + GlcN: 11.9 ± 1.5 | MMV020746: IC50 ± SEM (nM) - GlcN: 104 ± 13; IC50 ± SEM (nM) + GlcN: 32.9 ± 3.9 | W482 (1): IC50 ± SEM (nM) - GlcN: 312 ± 28; IC50 ± SEM (nM) + GlcN: 153 ± 12\nParasite proliferation assays were performed with PfABCI3‐HAreg parasites^[ [19] ^] according to a previously described method, with the fluorescent nucleic acid intercalating dye SYBR Safe used to measure parasite viability.^[ [32] ^, [33] ^] The assays were commenced with cultures consisting of predominantly ring‐stage parasites with a starting hematocrit of 1% and parasitemia of 1%. […] It was shown previously that there is a reduction in pfabci3‐ha mRNA in PfABCI3‐HAreg exposed to 5 mM GlcN and a decrease in parasite viability over time.^[ [19] ^] The level of knockdown of the protein is not known."}, "[7]": {"assay": "in vitro", "assay_type": "in vitro ADME", "method": "(§4) The aqueous solubility and in vitro metabolic stability of selected analogs were assessed to determine if they had favorable parameters (Table 9 ).These analogs were selected based on their potency and the modifications that were incorporated, which led to compounds 55 and 56. […] The high lipophilicity of analogs 1, 11, and 16 was not favorable for metabolic stability.\nas §1"}, "[8]": {"assay": "physchem", "assay_type": "physicochemical", "settings": "kinetic in PBS, pH 7.4; read-out: Aqueous solubility pH 7.4", "method": "as §4, §1"}, "[9]": {"tested_on": "P. falciparum 3D7 parasites", "assay": "Stage of asexual arrest assay", "assay_type": "cell-based, Plasmodium falciparum", "method": "The asexual stage of arrest and parasite reduction ratio (PRR) assays were undertaken on W482 (1) to assess the speed‐of‐asexual kill and the alignment of the pyrimidine‐2,4‐diamine class with the Target Candidate Profiles (TCPs).^[ [27] ^] […] Parasite samples were collected from the culture at 12, 24, 36, 48, and 60 h, and microscopy was performed on Giemsa‐stained thin blood‐smeared samples. These samples were also quantified with flow cytometry using SYBR Green.\nas §3"}, "[10]": {"assay": "in vitro", "assay_type": "cell-based", "settings": "human; HepG2 viability over 48 h, Cell Titer-Glo; means and SDs, 3 experiments; read-out: HepG2 CC50 (SD)", "method": "as §2\nThis was performed as previously described.^[ [14] ^, [31] ^]"}, "[11]": {"tested_on": "early stage (I–III) gametocytes", "settings": "at 2.5 µM; cited from earlier work"}, "[12]": {"tested_on": "P. berghei liver stage", "settings": "at 50 µM; cited from earlier work"}, "[13]": {"tested_on": "late stage (IV‐V) gametocytes", "settings": "at 5 µM; cited from earlier work"}, "[14]": {"tested_on": "hemoglobin catabolism", "parameters": "method as in PMID 27572391", "settings": "previous metabolomic profiling; cited from earlier work"}, "[15]": {"tested_on": "P. falciparum 3D7 parasites", "settings": "asexual P. falciparum 3D7; hits from GSK TCAMS screen / MMV Malaria Box; cited from earlier work"}, "[16]": {"settings": "Plasmodium falciparum, 3D7, 72 h, P. falciparum 3D7, LDH activity, 72 h exposure, means and SDs, 3 or more experiments, read-out: Pf parasite EC50 (SD)"}}, "note": "Read-outs that look alike come from different tables or passages of the source."}
{"compound": "3‐Cyclohexyl‐N‐(4‐((4‐(dimethylamino)‐6‐methylpyrimidin‐2‐yl)amino)phenyl)propenamide [W482 (1)]", "values": [{"measurement": "EC50", "setting": "[1]; population #1, read-out: EC50 against W482-selected population #1", "value": 396, "unit": "nM"}, {"measurement": "EC50", "setting": "[1]; population #2, read-out: EC50 against W482-selected population #2", "value": 407, "unit": "nM"}, {"measurement": "fold decreased activity of resistant populations compared to parental 3D7", "setting": "[1]; two recovered populations vs parental 3D7", "value": 2, "unit": "fold"}, {"measurement": "eLogD", "setting": "[2]", "value": "4.6–5.0"}, {"measurement": "EC50", "setting": "[3]; parental 3D7 in resistance selection study, 72 h Pf LDH assay, 3 independent assays, read-out: EC50 against parental 3D7", "value": 197, "unit": "nM"}, {"measurement": "asexual speed-of-kill profile", "setting": "[4]", "value": "fast killing profile"}, {"measurement": "lag phase", "setting": "[4]; parasite killing profile", "value": 24, "unit": "h"}, {"measurement": "Albumax binding % bound", "setting": "[5]", "value": 99.1, "unit": "%"}, {"measurement": "IC50", "setting": "[6]; PfABCI3-HAreg parasites expressing normal level of PfABCI3-HA (-GlcN)", "value": "312 ± 28", "unit": "nM"}, {"measurement": "IC50", "setting": "[6]; PfABCI3-HAreg parasites with reduced pfabci3-ha mRNA (+ 5 mM GlcN)", "value": "153 ± 12", "unit": "nM"}, {"measurement": "fold lower IC50 for +GlcN parasites than -GlcN parasites", "setting": "[6]", "value": "2.0 ± 0.1", "unit": "fold"}, {"measurement": "Human liver microsomes CLint", "setting": "[7]", "value": 174, "unit": "µL/min/mg"}, {"measurement": "Rat hepatocytes CLint", "setting": "[7]", "value": ">92", "unit": "µL/min/10^6 cells"}, {"measurement": "Human liver microsomes CLint", "setting": "[7]; listed as 1", "value": "> 117", "unit": "µL/min/mg"}, {"measurement": "solubility", "setting": "[8]", "value": 3.8, "unit": "µM"}, {"measurement": "asexual stage of arrest", "setting": "[9]; 10 × EC50 (1.4 µM) for 60 h, Giemsa-stained smears", "value": "ring to trophozoite transition stage"}, {"measurement": "percentage of parasitemia over time", "setting": "[9]; 10 × EC50 (1.4 µM), SYBR Green flow cytometry", "value": "declines after 36 h"}]}
{"compound": "CCN(CC)c1cc(C)nc(Nc2ccc(NC(=O)CCC3CCCCC3)cc2)n1", "note": "[Compound 4]", "values": [{"measurement": "EC50", "setting": "[3]; [16]", "value": 520, "unit": "nM"}, {"measurement": "CC50", "setting": "[10]", "value": 18000, "unit": "nM"}]}
{"compound": "Cc1cc(N2CCCC2)nc(Nc2ccc(NC(=O)CCC3CCCCC3)cc2)n1", "note": "[Compound 7, 3‐Cyclohexyl‐N‐(4‐((4‐methyl‐6‐(pyrrolidin‐1‐yl)pyrimidin‐2‐yl)amino)phenyl)propanamide]", "values": [{"measurement": "EC50", "setting": "[3]; [16]", "value": 540, "unit": "nM"}, {"measurement": "CC50", "setting": "[10]", "value": 12600, "unit": "nM"}]}
{"compound": "CN(C)c1cc(Nc2ccc(NC(=O)CCC3CCCCC3)cc2)nc2ccccc12", "note": "[Compound 22, 3‐Cyclohexyl‐N‐(4‐((4‐(dimethylamino)quinolin‐2‐yl)amino)phenyl)propanamide]", "values": [{"measurement": "EC50", "setting": "[3]; [16]", "value": 2470, "unit": "nM"}, {"measurement": "CC50", "setting": "[10]", "value": 15900, "unit": "nM"}]}
{"compound": "Cc1cc(N(C)C)nc(Nc2ccc(NC(=O)Nc3ccccc3)cc2)n1", "note": "[MMV020243 (2)]", "values": [{"measurement": "inhibition of early stage (I–III) gametocytes", "setting": "[11]", "value": 67, "unit": "%"}, {"measurement": "inhibition of P. berghei liver stage development", "setting": "[12]", "value": 2, "unit": "%"}, {"measurement": "inhibition of late stage (IV‐V) gametocytes", "setting": "[13]", "value": 2, "unit": "%"}]}
{"compound": "Cc1cc(N2CCCC2)nc(Nc2ccc(NC(=O)CCc3ccccc3)cc2)n1", "note": "[MMV396669 (3)]", "values": [{"measurement": "inhibition of early stage (I–III) gametocytes", "setting": "[11]", "value": 79, "unit": "%"}, {"measurement": "metabolomic profile", "setting": "[14]", "value": "peptide signature consistent with hemoglobin catabolism inhibition"}, {"measurement": "inhibition of P. berghei liver stage development", "setting": "[12]", "value": 3, "unit": "%"}, {"measurement": "inhibition of late stage (IV‐V) gametocytes", "setting": "[13]", "value": 21, "unit": "%"}, {"measurement": "EC50", "setting": "[15]", "value": 1070, "unit": "nM"}]}
{"compound": "CCc1nc(N)nc(N)c1-c1ccc(Cl)cc1", "note": "[Pyrimethamine, reference compound]", "values": [{"measurement": "asexual speed-of-kill profile", "setting": "[4]", "value": "moderate killing rate"}]}
